The target in one assay is T1, human ACSS1 protein (Homo sapiens, UniProt Q9NUB1).
T1 construct: purchased MyBioSource
T1 sequence (Q9NUB1 38-689): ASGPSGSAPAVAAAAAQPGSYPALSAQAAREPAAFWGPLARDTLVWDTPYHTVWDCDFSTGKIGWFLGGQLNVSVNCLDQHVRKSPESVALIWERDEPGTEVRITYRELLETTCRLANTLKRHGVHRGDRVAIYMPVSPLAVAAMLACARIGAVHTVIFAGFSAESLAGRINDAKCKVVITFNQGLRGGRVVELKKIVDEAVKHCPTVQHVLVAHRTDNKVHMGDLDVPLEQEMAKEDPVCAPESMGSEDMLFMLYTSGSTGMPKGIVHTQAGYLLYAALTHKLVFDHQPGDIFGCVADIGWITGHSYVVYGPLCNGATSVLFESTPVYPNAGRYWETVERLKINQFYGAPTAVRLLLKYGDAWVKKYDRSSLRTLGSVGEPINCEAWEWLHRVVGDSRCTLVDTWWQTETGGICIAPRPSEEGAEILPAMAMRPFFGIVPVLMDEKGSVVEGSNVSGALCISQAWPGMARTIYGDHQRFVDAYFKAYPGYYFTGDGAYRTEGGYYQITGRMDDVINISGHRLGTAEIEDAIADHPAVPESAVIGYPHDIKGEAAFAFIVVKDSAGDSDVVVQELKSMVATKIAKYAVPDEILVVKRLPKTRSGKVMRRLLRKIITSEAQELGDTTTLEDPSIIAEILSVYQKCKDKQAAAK
As to the kind of experiment: ACSS1 cell-free activity assay (pyrophosphatase-coupled, Biomol green). Conditions: 5 nM human ACSS1, 30 minutes at room temperature, absorbance at 620 nm; for IC50: read-out: ACSS1 Biochemical IC50; call rule not given here. It is filed as biochemical. In outline: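 5 nM human ACSS1 incubated 30 min at RT with compound in pH 7.5 Hepes buffer with 15 μM CoA, 5 mM acetate, 300 μM ATP, 2 mM MgCl2 and pyrophosphatase. Released phosphate detected with Biomol Green (30 min), absorbance 620 nm. IC50 from constrained non-linear regression.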

Assay [1] addresses T2, ACSS2 in MDA-MB-468 cells (Homo sapiens, UniProt Q9NR19).
T2 construct: endogenous in cells; host or cells: MDA-MB-468 cells, hypoxia (1% O2)
As to the kind of experiment: Cellular fatty-acid IC50: 13C-acetate incorporation into fatty acids (palmitate), LC-MS. It is filed as cell-based. Particulars: hypoxic conditions (1% O2), 75% charcoal stripped serum, 5 hours, 13C-acetate into palmitate, read-out: Cellular Fatty-acid IC50 High Serum MDA468. How it is done: Cellular Fatty-Acid IC50 Determination:
The cellular activity of ACSS2 was measured in MDA-MB-468 cells under hypoxic conditions by tracing the incorporation of labelled carbons from ^13C-acetate into newly synthesized fatty acids. The assay was performed using 75% charcoal stripped serum (high serum conditions).
MDA-MB-468 cells were seeded in 12-well plates (0.35×10^6 cells per well) in plating medium (Dulbecco's Modified Eagle Medium containing 25 mM D-glucose, 1 mM sodium pyruvate, 10% v/v fetal bovine serum, and 2 mM glutamine) and incubated for 24 hours under hypoxic conditions (1% O2).
The next day, tracing medium containing DMEM (01-057-1A) containing 75% charcoal stripped serum (Biological industries 04-201-1A), 3.5 μg/mL Biotin (Sigma-Aldrich B4639), 1 mM Pyruvate, 5.5 mM Glucose, 0.65 mM Glutamine and 0.5 mM ^13C-Acetate (Sigma-Aldrich #282014) with serial dilutions of the compounds in the range of 0.000512-1000 nM were prepared. The plating medium was replaced with 1 mL tracing medium plus compounds and the cells were incubated for 5 hours under hypoxic conditions (1% O2). Plating medium in control wells (without cells or without compounds) was replaced with 1 mL tracing medium containing 0.01% v/v DMSO.
The level of ^13C-acetate incorporation into fatty acids (palmitate) was measured by LC-MS analysis and IC50 as described below:
Sample Preparation for LC-MS
• a) Cells were washed twice with cold phosphate buffered saline (PBS), scraped into 0.5 mL EDTA pH 8.0, and transferred into 1.1 mL V-shaped HPLC glass tubes. • b) The cell suspensions were centrifuged for 5 minutes at 400×g, 4° C. and the supernatants were removed. • c) Cell pellets were frozen at −80° C.
• d) Cell pellets were resuspended in 0.2 mL of 80% v/v ethanol in water containing 0.02 M NaOH in 1.1 ml glass (v-bottom) HPLC vials. • e) The vials were closed tight and incubated at 66° C. for 60 minutes. • f) Acetonitrile containing 2% v/v formic acid (150 μL) was added to each vial and the mixtures were transferred to Eppendorf tubes for centrifugation at 17 000×g for 20 minutes. • g) Supernatants were transferred to LC-MS vials.
The relative palmitate concentration was measured by LC-MS in reconstructed selected ion monitoring (RSIM) mode and negative ion mode. Samples were analyzed on a Phenomenex Kinetex 2.6 μm XB-C18 150×2.1 mm column at 45° C. (0.4 mL/minute flow rate) using: • a) A gradient from 15% A/85% C to 100% C for 0 to 2 minutes (A: water containing 5% v/v acetonitrile, 10 mM ammonium acetate, and 10 mM acetic acid; C: a mixture of 50% v/v acetonitrile and 50% v/v methanol). • b) Isocratic flow (100% C) for 2 to 5 minutes. • c) Equilibration in isocratic conditions (15% A/85% C) for 5 to 8 minutes.
Palmitate was eluted at approximately 3.4 minutes.
The percent inhibition was calculated relative to the sample without compound and after background deduction. IC50 values were calculated using non-linear regression curve fit analysis with 0% and 100% constraints (CDD Vault, Collaborative Drug Discovery, Inc. or GraphPad Prism).
The inhibitory activities of each compound against ACSS2 in MDA-MB-468 cells under high serum conditions, as determined by ^13C-acetate incorporation into fatty acids (palmitate), are presented in Table 2.

For a further assay, the target named is T3, human ACSS2 protein (Homo sapiens, UniProt Q9NR19).
T3 construct: purchased OriGene Technologies, Inc
T3 sequence (Q9NR19 whole entry): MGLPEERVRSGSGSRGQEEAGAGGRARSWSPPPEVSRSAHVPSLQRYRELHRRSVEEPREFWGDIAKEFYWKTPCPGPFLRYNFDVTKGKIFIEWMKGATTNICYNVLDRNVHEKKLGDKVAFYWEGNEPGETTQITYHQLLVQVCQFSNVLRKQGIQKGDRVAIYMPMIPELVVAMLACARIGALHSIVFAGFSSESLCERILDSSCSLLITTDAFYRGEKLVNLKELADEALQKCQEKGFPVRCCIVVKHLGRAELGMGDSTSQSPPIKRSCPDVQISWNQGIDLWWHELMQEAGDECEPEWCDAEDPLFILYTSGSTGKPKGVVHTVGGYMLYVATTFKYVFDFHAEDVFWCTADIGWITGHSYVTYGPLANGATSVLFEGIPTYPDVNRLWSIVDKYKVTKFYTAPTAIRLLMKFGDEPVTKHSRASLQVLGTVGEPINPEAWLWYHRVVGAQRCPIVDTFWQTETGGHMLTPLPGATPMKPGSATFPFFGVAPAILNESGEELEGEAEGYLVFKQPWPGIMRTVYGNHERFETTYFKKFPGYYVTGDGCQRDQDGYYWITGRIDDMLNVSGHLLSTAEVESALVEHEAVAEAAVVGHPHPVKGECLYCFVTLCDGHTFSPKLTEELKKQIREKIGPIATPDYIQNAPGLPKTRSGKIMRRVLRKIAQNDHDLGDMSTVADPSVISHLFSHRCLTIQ
In words: ACSS2 cell-free activity assay (pyrophosphatase-coupled, Biomol green). Conditions: 10 nM human ACSS2, 90 minutes at 37 C, absorbance at 620 nm; read-out: ACSS2 Biochemical IC50. In outline:
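10 nM human ACSS2 incubated 90 min at 37 C with compound, 300 μM ATP, 10 μM CoA, 5 mM NaAc in pH 7.5 Hepes buffer with 0.5 U/ml pyrophosphatase. Released phosphate detected with Biomol Green at 620 nm; IC50 by non-linear regression constrained to 0% and 100%.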

From patent publication US20230174507A1, “IMIDAZOLE 3-OXIDE DERIVATIVE BASED ACSS2 INHIBITORS AND METHODS OF USE THEREOF” (METABOMED LTD., priority 2020, published 2023) come the findings set out here.

Each structure is given as a SMILES string.

For orientation: IC50 means the concentration at which inhibition is half-maximal.

T2 sequence (Q9NR19 whole entry): as above

In the case of `CCC(F)(F)c1cccc(NC(=O)c2c(C)[nH]c(-c3ccc(OC)c(-c4ncccc4C)c3)[n+]2[O-])c1` [Compound 100, 4-((3-(1,1-difluoropropyl)phenyl)carbamoyl)-2-(4-methoxy-3-(3-methylpyridin-2-yl)phenyl)-5-methyl-1H-imidazole 3-oxide], the “ACSS1 Biochemical IC50 (nM)” value on human ACSS1 protein is on record as “Inactive”. Moreover, in assay [1], the IC50 was under 20 nM.
In the same order, the values of `CCC(F)(F)c1cccc(NC(=O)c2c(C)[nH]c(-c3ccc(OC)cc3)[n+]2[O-])c1` [Compound 101, 4-((3-(1,1-difluoropropyl)phenyl)carbamoyl)-2-(4-methoxyphenyl)-5-methyl-1H-imidazole 3-oxide] are “Inactive” and 20 to 50 nM.
Consider `CCC(F)(F)c1cccc(NC(=O)c2c(C)[nH]c(-c3ccc(OC)c(-c4c(C)cccc4C)c3)[n+]2[O-])c1` [Compound 102, 4-((3-(1,1-difluoropropyl)phenyl)carbamoyl)-2-(6-methoxy-2′,6′-dimethyl-[1,1′-biphenyl]-3-yl)-5-methyl-1H-imidazole 3-oxide], for which the figures for the IC50 (at human ACSS2 protein; in assay [1]) were under 1 nM and under 20 nM, respectively. Further, on human ACSS1 protein, the “ACSS1 Biochemical IC50 (nM)” value is reported as “Inactive”.
As for `CCC(F)(F)c1cccc(NC(=O)c2c(C)[nH]c(-c3ccc(OC(F)F)c(-c4c(C)cccc4C)c3)[n+]2[O-])c1` [Compound 103, 2-(6-(difluoromethoxy)-2′,6′-dimethyl-[1,1′-biphenyl]-3-yl)-4-((3-(1,1-difluoropropyl)phenyl)carbamoyl)-5-methyl-1H-imidazole 3-oxide], the IC50 on human ACSS2 protein is under 1 nM; in assay [1], 20 to 50 nM. Further, the “ACSS1 Biochemical IC50 (nM)” value on human ACSS1 protein was “Inactive”.
`COc1ccc(-c2[nH]c(C)c(C(=O)Nc3cccc(C(F)(F)C4CC4)c3)[n+]2[O-])cc1-c1c(C)cccc1C` [Compound 104, 4-((3-(cyclopropyldifluoromethyl)phenyl)carbamoyl)-2-(6-methoxy-2′,6′-dimethyl-[1,1′-biphenyl]-3-yl)-5-methyl-1H-imidazole 3-oxide]: the IC50 at human ACSS2 protein is under 1 nM; in assay [1] it was 20 to 50 nM. Also, at human ACSS1 protein, the “ACSS1 Biochemical IC50 (nM)” value is given as “Inactive”.
In the same order, the values of `COc1ccc(-c2[nH]c(C)c(C(=O)Nc3cccc(C(F)(F)C4CC4)c3)[n+]2[O-])cc1-c1c(C)cncc1C` [Compound 105, 4-((3-(cyclopropyldifluoromethyl)phenyl)carbamoyl)-2-(3-(3,5-dimethylpyridin-4-yl)-4-methoxyphenyl)-5-methyl-1H-imidazole 3-oxide] are under 1 nM, under 20 nM and “Inactive”.
In the same order, the values of `CCC(F)(F)c1cccc(NC(=O)c2c(C)[nH]c(-c3cc(C)cc(-c4c(C)cccc4C)c3)[n+]2[O-])c1` [Compound 106, 4-((3-(1,1-difluoropropyl)phenyl)carbamoyl)-5-methyl-2-(2′,5,6′-trimethyl-[1,1′-biphenyl]-3-yl)-1H-imidazole 3-oxide] are under 1 nM, over 50 nM and “Inactive”.
In the same order, the values of `CCC(F)(F)c1cccc(NC(=O)c2c(C)[nH]c(-c3cccc(-c4c(C)cccc4C)c3)[n+]2[O-])c1` [Compound 107, 4-((3-(1,1-difluoropropyl)phenyl)carbamoyl)-2-(2′,6′-dimethyl-[1,1′-biphenyl]-3-yl)-5-methyl-1H-imidazole 3-oxide] are under 1 nM, under 20 nM and “Inactive”.
On to `CCC(F)(F)c1cccc(NC(=O)c2c(C)[nH]c(-c3ccc(Cl)c(-c4c(C)cccc4C)c3)[n+]2[O-])c1` [Compound 108, 2-(6-chloro-2′,6′-dimethyl-[1,1′-biphenyl]-3-yl)-4-((3-(1,1-difluoropropyl)phenyl)carbamoyl)-5-methyl-1H-imidazole 3-oxide], for which the figures for the IC50 (on human ACSS2 protein; in assay [1]) were under 1 nM and 20 to 50 nM, respectively. For the same molecule, the “ACSS1 Biochemical IC50 (nM)” value on human ACSS1 protein is recorded as “Inactive”.
In the same order, the values of `CCC(F)(F)c1cccc(NC(=O)c2c(C)[nH]c(-c3cccc(-c4ncncc4C)c3)[n+]2[O-])c1` [Compound 109, 4-((3-(1,1-difluoropropyl)phenyl)carbamoyl)-5-methyl-2-(3-(5-methylpyrimidin-4-yl)phenyl)-1H-imidazole 3-oxide] are under 1 nM, under 20 nM and “Inactive”.
In the case of `CCC(F)(F)c1cccc(NC(=O)c2c(C)[nH]c(-c3cccc(-c4nccnc4C)c3)[n+]2[O-])c1` [Compound 110, 4-((3-(1,1-difluoropropyl)phenyl)carbamoyl)-5-methyl-2-(3-(3-methylpyrazin-2-yl)phenyl)-1H-imidazole 3-oxide], the IC50 on human ACSS2 protein is under 1 nM; at human ACSS1 protein it was over 30 nM; in assay [1], under 20 nM.
`CCC(F)(F)c1cccc(NC(=O)c2c(C)[nH]c(-c3cccc(-c4c(C)cccc4C)n3)[n+]2[O-])c1` [Compound 111, 4-((3-(1,1-difluoropropyl)phenyl)carbamoyl)-2-(6-(2,6-dimethylphenyl)pyridin-2-yl)-5-methyl-1H-imidazole 3-oxide]: the IC50 at human ACSS2 protein was under 1 nM; in assay [1], over 50 nM. For the same molecule, at human ACSS1 protein, the “ACSS1 Biochemical IC50 (nM)” value is recorded as “Inactive”.
On to `CCC(F)(F)c1cccc(NC(=O)c2c(C)[nH]c(-c3cccc(-c4c(C)ncnc4C)c3)[n+]2[O-])c1` [Compound 112, 4-((3-(1,1-difluoropropyl)phenyl)carbamoyl)-2-(3-(4,6-dimethylpyrimidin-5-yl)phenyl)-5-methyl-1H-imidazole 3-oxide], for which the IC50 on human ACSS2 protein is under 1 nM; on human ACSS1 protein, over 30 nM; in assay [1], under 20 nM.
